From patent US20130023563A1, “AMIDINOANILINE DERIVATIVE” (AJINOMOTO CO., INC., priority 2010, published 2013)
Structures can show the parent of a compound that is named as a salt.

Tests used:
[1] = Evaluation of stability in plasma; type: in vitro ADME; conditions: human plasma, 37° C., read-out: T½
Procedure: Experimental Example 4 Evaluation of stability in plasma
To human plasma (495 μL) was added 5 μL from a solution of the test compound prepared to 200 μM (final drug solution concentration 2 μM), and the mixture was incubated at 37° C. At 0 min, 1 min, 2 min, 5 min and 10 min from the addition of the drug solution, 50 μL each was sampled, 0.1 mg/ml DDVP-containing acetonitrile (350 μL) was added, and the reaction was discontinued by blending them. After discontinuation of the reaction, a deproteination treatment was performed by a centrifugation operation at 15000 rpm for 5 min. The centrifugation supernatant (350 μL) was dried to solidness, concentrated, dissolved in aqueous solution (100 μL) of 20% acetonitrile and 0.1% formic acid and the mixture was subjected to the measurement by LC/MS/MS.
The half-life (T1/2) was calculated using initial 3rd-4th time points.

[2] = molecular target: FXa (Homo sapiens, UniProt P00742); assay: Measurement of inhibitory activity against activated factor X (chromogenic substrate S-2222); type: biochemical; conditions: 0.015 U/ml FXa, 0.2 mM S-2222, absorbance 405 nm; read-out: FXa (pIC50) (converted)
Chain of FXa (P00742 235-488 limits assumed): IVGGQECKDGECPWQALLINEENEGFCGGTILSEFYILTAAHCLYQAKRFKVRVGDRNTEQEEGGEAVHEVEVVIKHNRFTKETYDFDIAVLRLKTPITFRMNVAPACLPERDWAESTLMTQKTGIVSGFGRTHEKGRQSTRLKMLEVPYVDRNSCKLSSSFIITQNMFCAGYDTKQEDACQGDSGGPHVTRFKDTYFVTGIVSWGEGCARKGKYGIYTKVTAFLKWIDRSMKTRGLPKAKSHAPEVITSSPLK
Chain of FXa (P00742 41-179 partner limits assumed): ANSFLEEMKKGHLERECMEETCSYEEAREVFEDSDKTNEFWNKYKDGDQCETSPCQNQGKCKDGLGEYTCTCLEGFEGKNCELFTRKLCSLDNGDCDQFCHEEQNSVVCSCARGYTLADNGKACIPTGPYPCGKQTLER
Procedure: Experimental Example 1 Measurement of Inhibitory Activity Against Activated Factor X Activity
(§1) Using a 96-well plate (#3396, Costar), 100 mM Tris-HC1 buffer (130 μL) containing 0.02% Tween 20, 0.1% PEG6000 and 0.2M NaCl was admixed with 0.015 U/ml FXa (10 μL) and a test compound (10 μL) for 10 min and a color developing substrate 0.2 mM S-2222 (50 μL) was added. Using a microplate reader Benchmark Plus (BIO-RAD), the reaction rate was measured from the time course changes at absorbance 405 nm. Using the reaction rate of the control as 100%, the negative logarithmic value of the concentration that can suppress the reaction rate of the control by 50% was taken as the pIC50 value.

[3] = Evaluation of stability in liver S9 fraction; type: in vitro ADME; conditions: human liver S9 fraction 2 mg/mL, 2 μM, 37° C.
Procedure: Experimental Example 5 Evaluation of Stability in Liver S9 Fraction
Metabolism reaction mixed solution (0.1 mM EDTA-100 mM potassium phosphate buffer (pH 7.4), 2 mg/mL human liver S9 fraction, 0.5 mM oxidized nicotinamide adenine dinucleotide phosphate, 5 mM glucose-6-phosphoric acid, 1 unit/mL glucose-6-phosphate dehydrogenase) was pre-warmed at 37° C. for 5 min. After pre-warming, DMSO solution of the substrate was added such that the concentration of the final drug solution was 2 μM, and the metabolism reaction was started at 37° C. A given amount was sampled at 0 min, 5 min, 10 min and 30 min from the start of the reaction, 0.1 mg/mL dichlorvos-containing acetonitrile was added, and blended to discontinue the reaction. After discontinuation of the reaction, a deproteination treatment was performed by a centrifugation operation at 15000 rpm for 5 min. To the centrifugation supernatant was added 0.3% aqueous formic acid solution, admixed and the mixture was subjected to the measurement by LC/MS/MS. Then, as the residual ratio (%) at 30 min later, the ratio relative to the concentration at 0 min was calculated.

[4] = test system: human plasma; assay: Anti-blood coagulant activity, aPTT method, Sysmex Cs-2000i (Experimental Example 3-2); type: biochemical; conditions: negative logarithmic value of the concentration that prolongs aPTT of the control 2 times
Procedure: Experimental Example 3-2 Measurement of Anti-Blood Coagulant Activity
(§2) An aPTT measurement method using totally automatic blood coagulation time measuring apparatus Sysmex Cs-2000i was used. A 10 mg/ml DDVP solution (DDVP standard product, Wako) (8 μL) and a test compound solution (40 μL) were placed in a sample tube (MS-18, Japan Medical Science), human plasma (standard human plasma for blood coagulation test, GCH-100A, Sysmex) (360 μL) was added and the mixture was used as a test sample. The test sample (50 μL) was incubated at 37° C. for 1 min, data fi APTT (rabbit brain-derived cephalin, DADE Behiring) (50 μL) was added, and the mixture was further incubated at 37° C. for 2 min. To the sample solution was added 0.02M calcium chloride (50 μL), and the time until plasma coagulation was automatically measured.
(§3) As the anti-blood coagulant activity, the negative logarithmic value of the concentration that prolongs aPTT of the control 2 times is shown as paPTT2.

[5] = molecular target: activated factor IIa (thrombin) (Homo sapiens, UniProt P00734); assay: Measurement of inhibitory activity against activated factor II (chromogenic substrate S-2238); type: biochemical; conditions: 0.125 U/ml thrombin, 0.1 mM S-2238, absorbance 405 nm; read-out: FIIa (pIC50) (converted)
Procedure: Experimental Example 2 Measurement of Inhibitory Activity Against Activated Factor II (FIIa, Thrombin)
as §1, with “mM Tris-HCl” for “mM Tris-HC1”, “with 0.125” for “with 0.015”, “U/ml activated factor IIa (thrombin)” for “U/ml FXa”, “substrate 0.1” for “substrate 0.2”, “mM S-2238” for “mM S-2222”

[6] = test system: human plasma; assay: Anti-blood coagulant activity, aPTT method, Sysmex CA-1500 (Experimental Example 3-1); type: biochemical; conditions: negative logarithmic value of the concentration that prolongs aPTT of the control 2 times
Procedure: Experimental Example 3-1 Measurement of Anti-Blood Coagulant Activity
Examples 1, 8, 9, 11, 13, 16-19 and 22 were measured according to the following method.
as §2, with “CA-1500” for “Cs-2000i”, “(4” for “(8”, “(20” for “(40”, “(180” for “(360”
as §3

half-life at 2 μM [1] | IC50 [2] | residual ratio (%) of liver S9 fraction 30 min later [3] | IC50 [5] | Structure (SMILES) | paPTT2 [4] | paPTT2 [6]
3.7 min | 20 nM | 64% | 38000 nM | C[C@H](C(=O)Oc1ccc(C(=N)N2CCCC2)cc1)N(C)c1cccc(C(=N)N)c1 [compound of Ex. 5, 4-[imino(pyrrolidin-1-yl)methyl]phenyl N-{3-[amino(imino)methyl]phenyl}-N-methyl-D-alaninate 2 trifluoroacetate] | 6.26 | 
< 1 min | 105 nM | 85% | 347 nM | CC(=N)N1CCC(Oc2ccc(OC(=O)[C@H]3CCCN3c3cccc(C(=N)N)c3)cc2)CC1 [compound of Ex. 11, 4-[(1-ethanimidoylpiperidin-4-yl)oxy]phenyl 1-{3-[amino(imino)methyl]phenyl}-D-prolinate 2 trifluoroacetate] |  | 6.25
< 1 min | 398 nM | 80% | > 100000 nM | N=C(N)c1cccc(N2CCC[C@H]2COC(=O)c2ccc(C(=N)N3CCCC3)cc2)c1 [compound of Ex. 22, ((2S)-1-{3-[amino(imino)methyl]phenyl}pyrrolidin-2-yl)methyl 4-[imino(pyrrolidin-1-yl)methyl]benzoate 2 trifluoroacetate] |  | 6.03
0.5 min |  | 92% |  | CC(=N)N1CCC(Oc2ccc(C(=O)OC[C@@H]3CCCN3c3cccc(C(=N)N)c3)cc2)CC1 [compound of Ex. 24, ((2S)-1-{3-[amino(imino)methyl]phenyl}pyrrolidin-2-yl)methyl 4-[(1-ethanimidoylpiperidin-4-yl)oxy]benzoate 2 trifluoroacetate] |  | 
0.2 min |  | 76% |  | N=C(N)c1cccc(N2CCC[C@@H]2COC(=O)c2ccc(C(=N)N3CCCC3)cc2)c1 [compound of Ex. 23, ((2R)-1-{3-[amino(imino)methyl]phenyl}pyrrolidin-2-yl)methyl 4-[imino(pyrrolidin-1-yl)methyl]benzoate 2 trifluoroacetate] |  | 
4 min | 13.5 nM | 57% | 83200 nM | C[C@@H](C(=O)Oc1ccc(C(=N)N2CCCC2)cc1)N(C)c1cccc(C(=N)N)c1 [compound of Ex. 4, 4-[imino(pyrrolidin-1-yl)methyl]phenyl N-{3-[amino(imino)methyl]phenyl}-N-methyl-L-alaninate 2 trifluoroacetate] | 6.89 | 
8.2 min | 339 nM | 86% | 288 nM | N=C(N)c1cccc(N2C[C@H](OCc3ccccc3)C[C@H]2C(=O)Oc2ccc(C(=N)N3CCCC3)cc2)c1 [compound of Ex. 13, 4-[imino(pyrrolidin-1-yl)methyl]phenyl (4R)-1-{3-[amino(imino)methyl]phenyl}-4-(benzyloxy)-L-prolinate 2 trifluoroacetate] |  | 5.59
